Like-named read-outs stand apart in the source and are kept apart here.
What was measured:
CRBN-DDB1 = CRBN-DDB1 (Homo sapiens, UniProt Q96SW2); experiment: CRBN FP binding assay (fluorescence polarization); conditions: 150 nM CRBN-DDB1, 5 nM Alexa-647 probe, read-out: FP CRBN_DDB1.3 ka
Experimental: The determination of the binding constant (KD) of test compounds to CRBN-DDB1 was carried out using an established sensitive and quantitative in vitro fluorescence polarization (FP) binding assay. Control compounds were run on the same plate. Compounds were dispensed from serially diluted DMSO stock supplied by Frontier Scientific Services Inc in low dead volume plates into black 384-well compatible FP plates using acoustic technology to 1% of total reaction volume. Compounds were arranged vertically in rows A through P. Concentrations series are horizontal: columns 1-11, and then duplicates in columns 12-22. Columns 23 and 24 are reserved for 0% (5 nM probe) and 100% controls (protein at high concentration with 5 nM probe), respectively. […] Matching control plates excluding CRBN-DDB1 were used to correct for background fluorescence. Plates were read on an Envision plate reader with appropriate FP filter sets.

CBP/P300 = target: T1, CBP/P300 (Homo sapiens, UniProt Q92793); experiment: CBP/P300 degradation, Nano-Glo HiBiT lytic assay; type: cell-based; conditions: HEK293T HiBiT-CBP cells, 6 h incubation; for Emax: HEK-293T
T1 construct: endogenous in cells; host or cells: HEK293T (CRISPR/Cas9 HiBiT knock-in at the CBP locus)
Description: Assay media was DMEM no-phenol red medium and fetal bovine serum (FBS) were purchased from Gibco (Grand Island, N.Y., USA). Nano-Glo®, 1HiBiT Lydc Assay Systeni was purchased from Promega (Madison, Wis. USA). Stable HEK293T cell line with endogenously tagged HiBiT-CBP was generated in house by CRISPR/Cas9 gene editing introducing the HiBiT fusion tag at the N-terminus using homologous directed repair. Cell culture flasks and 384-well microplates were acquired from VWR (Radnor, Pa., USA).
CBP degradation was determined based on quantification of luminescent signal using Nano-Glo® HiBiT Lytic Assay kit. Test compounds were added to the 384-well plate from a top […] with 11 points, half log titration in duplicates, Cells were added into 384-well Corning 3570 plates, (Corning, Tewksbury, MA, USA) at a cell density of 10,000 cells per well in assay media. The plates were incubated at 37° C. with 5% CO2 for 6 hours. The cells treated in the absence of the test compound were the negative control and media was the positive control. After 6-hour incubation, Nano-Glo® HiBiT Lytic Assay reagents were added to the cells, Luminescence was acquired on EnVision™ Multilabel Reader (PerkinElmer, Santa Clara, Calif., USA).

cellular cereblon (CRBN) = cellular cereblon (CRBN) (Homo sapiens, UniProt Q96SW2); experiment: NanoBRET CRBN assay, displacement of pomalidomide-NanoBRET tracer in 293T cells
ERK1/2 = ERK1/2 degradation, Total ERK HTRF assay in Colo205 cells; type: cell-based; conditions: 6 h, read-out: ERK1/2 6 h DC50 (Emax %)
Experimental: Colo205 CCL-222 cells were purchased from ATCC. RPMI 1640 no-phenol red medium and fetal bovine serum (FBS) were purchased from Gibco (Grand Island, NY, USA). Cell culture flasks and 384-well microplates were acquired from VWR (Radnor, PA, USA). Total ERK HTRF assay kits were purchased from Cisbio (64NRKPEH, Bedford, MA, USA).
Degradation of ERK1/2 was determined based on quantification of FRET signal using a Total ERK1/2 HTRF assay kit. Test compounds were added to the 384-well plate from a top concentration of 10 μM with 10 points, half-log titration in duplicates. COL0205 cells were added into 384-well plates at a cell density of 5,000 cells per well. The plates were kept at 37° C. with 5% CO2 for 6 hours. Cells treated in the absence of the test compound were the negative control. Positive control was set by wells containing all reagents but no cells. HTRF regents were added according to manufacturer's instructions with the additional step of lysate denaturation at 95° C. for 10 minutes and cooling to room temperature before antibody addition. Following addition of the antibodies the samples were incubated overnight. FRET signal was acquired on an EnVision™ Multilabel Reader (PerkinElmer, Santa Clara, CA, USA).

NSP3 UBL2_PLpro-HA-HiBiT = NSP3 UBL2_PLpro-HA-HiBiT (Severe acute respiratory syndrome coronavirus 2, UniProt P0DTC1); experiment: NSP3 UBL2_PLpro-HA-HiBiT degradation assay (cellular) in 293T cells; type: cell-based, Severe acute respiratory syndrome Coronavirus 2 (Sars-CoV-2); conditions: 6.0 hours; for DC50: read-out: HiBiT-Degradation 293T.234 NSP3_PLpro 6.0 hours (DC50); for Emax: HEK-293T, Emax = residual protein remaining after treatment, read-out: HiBiT-Degradation 293T.234 NSP3_PLpro 6.0 hours (Emax %)
[1] = 1.5 h room temperature, numeric bounds
[2] = 1.5 h room temperature, class symbols

T1 sequence (Q92793 whole entry): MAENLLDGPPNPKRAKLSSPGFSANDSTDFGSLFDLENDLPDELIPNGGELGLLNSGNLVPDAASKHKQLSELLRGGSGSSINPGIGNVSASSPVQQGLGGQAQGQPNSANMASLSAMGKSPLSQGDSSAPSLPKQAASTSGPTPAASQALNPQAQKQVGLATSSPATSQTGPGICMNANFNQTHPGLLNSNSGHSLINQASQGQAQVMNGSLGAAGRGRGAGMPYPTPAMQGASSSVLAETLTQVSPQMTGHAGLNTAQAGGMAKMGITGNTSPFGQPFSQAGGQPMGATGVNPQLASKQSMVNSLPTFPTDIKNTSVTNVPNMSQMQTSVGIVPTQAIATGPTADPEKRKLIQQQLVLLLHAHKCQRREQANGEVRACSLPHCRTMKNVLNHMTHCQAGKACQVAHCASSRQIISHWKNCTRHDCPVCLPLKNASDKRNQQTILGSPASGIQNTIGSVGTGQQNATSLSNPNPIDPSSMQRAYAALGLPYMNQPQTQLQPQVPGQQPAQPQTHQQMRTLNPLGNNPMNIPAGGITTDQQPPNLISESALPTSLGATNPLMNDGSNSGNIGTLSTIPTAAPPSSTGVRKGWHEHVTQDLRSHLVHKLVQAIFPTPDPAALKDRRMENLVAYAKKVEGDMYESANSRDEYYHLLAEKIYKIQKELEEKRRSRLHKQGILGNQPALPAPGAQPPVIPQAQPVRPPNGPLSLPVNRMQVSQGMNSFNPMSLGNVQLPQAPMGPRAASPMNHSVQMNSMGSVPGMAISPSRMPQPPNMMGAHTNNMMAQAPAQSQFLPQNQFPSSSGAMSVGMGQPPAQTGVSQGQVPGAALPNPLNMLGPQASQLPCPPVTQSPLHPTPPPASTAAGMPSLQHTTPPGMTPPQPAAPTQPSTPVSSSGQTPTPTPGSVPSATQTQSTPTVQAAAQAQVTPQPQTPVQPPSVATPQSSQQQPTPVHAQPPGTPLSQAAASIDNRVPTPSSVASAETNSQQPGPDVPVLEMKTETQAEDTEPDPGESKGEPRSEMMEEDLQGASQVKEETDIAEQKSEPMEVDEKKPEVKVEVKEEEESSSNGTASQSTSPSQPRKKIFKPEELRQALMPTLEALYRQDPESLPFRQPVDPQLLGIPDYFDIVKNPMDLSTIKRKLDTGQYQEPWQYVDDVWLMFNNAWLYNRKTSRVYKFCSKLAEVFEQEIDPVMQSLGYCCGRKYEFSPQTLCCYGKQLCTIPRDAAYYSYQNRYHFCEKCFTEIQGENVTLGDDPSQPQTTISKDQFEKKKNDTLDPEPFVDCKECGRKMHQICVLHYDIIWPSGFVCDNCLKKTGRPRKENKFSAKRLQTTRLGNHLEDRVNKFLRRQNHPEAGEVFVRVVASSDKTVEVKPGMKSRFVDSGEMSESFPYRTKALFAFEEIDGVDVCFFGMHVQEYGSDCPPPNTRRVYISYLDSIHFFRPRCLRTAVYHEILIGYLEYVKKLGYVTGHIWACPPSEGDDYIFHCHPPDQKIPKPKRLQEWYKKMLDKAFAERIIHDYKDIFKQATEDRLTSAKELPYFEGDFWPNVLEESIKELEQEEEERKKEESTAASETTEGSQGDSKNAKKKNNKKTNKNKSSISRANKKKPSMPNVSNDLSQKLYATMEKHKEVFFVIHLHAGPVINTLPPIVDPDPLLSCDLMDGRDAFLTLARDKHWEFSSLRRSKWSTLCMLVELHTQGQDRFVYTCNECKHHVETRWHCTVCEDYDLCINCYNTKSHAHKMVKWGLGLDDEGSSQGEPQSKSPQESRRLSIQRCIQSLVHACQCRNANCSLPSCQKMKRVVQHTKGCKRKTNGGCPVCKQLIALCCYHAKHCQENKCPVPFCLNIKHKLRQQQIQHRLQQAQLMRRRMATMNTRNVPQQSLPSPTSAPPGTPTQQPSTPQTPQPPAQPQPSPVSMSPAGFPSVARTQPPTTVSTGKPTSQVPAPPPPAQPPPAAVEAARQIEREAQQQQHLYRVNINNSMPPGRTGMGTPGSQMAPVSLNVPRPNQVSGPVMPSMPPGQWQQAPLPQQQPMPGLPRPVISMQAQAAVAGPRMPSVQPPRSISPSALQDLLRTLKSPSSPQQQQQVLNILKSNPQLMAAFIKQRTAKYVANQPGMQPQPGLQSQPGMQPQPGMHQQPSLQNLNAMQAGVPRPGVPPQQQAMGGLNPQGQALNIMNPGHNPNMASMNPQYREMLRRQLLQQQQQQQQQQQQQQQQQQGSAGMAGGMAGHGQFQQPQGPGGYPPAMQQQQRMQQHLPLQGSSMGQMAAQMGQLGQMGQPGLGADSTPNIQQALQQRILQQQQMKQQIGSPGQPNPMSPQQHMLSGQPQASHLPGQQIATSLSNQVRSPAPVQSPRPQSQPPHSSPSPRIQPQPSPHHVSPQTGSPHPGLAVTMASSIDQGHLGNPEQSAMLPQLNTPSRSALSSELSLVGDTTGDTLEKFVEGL
cellular cereblon (CRBN), sequence (Q96SW2 whole entry, species assumed): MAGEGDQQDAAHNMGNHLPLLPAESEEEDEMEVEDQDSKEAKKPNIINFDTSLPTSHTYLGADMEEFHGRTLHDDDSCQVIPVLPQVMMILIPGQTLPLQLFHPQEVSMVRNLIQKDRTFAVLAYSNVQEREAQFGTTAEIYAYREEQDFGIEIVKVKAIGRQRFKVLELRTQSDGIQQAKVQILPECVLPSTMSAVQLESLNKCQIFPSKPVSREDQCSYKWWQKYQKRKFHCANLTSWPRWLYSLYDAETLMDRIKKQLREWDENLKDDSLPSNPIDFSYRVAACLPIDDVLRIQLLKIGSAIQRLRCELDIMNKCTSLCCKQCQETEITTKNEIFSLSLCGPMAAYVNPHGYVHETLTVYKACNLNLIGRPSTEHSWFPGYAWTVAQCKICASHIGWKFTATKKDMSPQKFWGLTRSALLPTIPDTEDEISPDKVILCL
CRBN-DDB1, sequence (Q96SW2 whole entry): as the sequence (Q96SW2 whole entry, species assumed) above
CRBN-DDB1, sequence (Q16531 whole entry partner): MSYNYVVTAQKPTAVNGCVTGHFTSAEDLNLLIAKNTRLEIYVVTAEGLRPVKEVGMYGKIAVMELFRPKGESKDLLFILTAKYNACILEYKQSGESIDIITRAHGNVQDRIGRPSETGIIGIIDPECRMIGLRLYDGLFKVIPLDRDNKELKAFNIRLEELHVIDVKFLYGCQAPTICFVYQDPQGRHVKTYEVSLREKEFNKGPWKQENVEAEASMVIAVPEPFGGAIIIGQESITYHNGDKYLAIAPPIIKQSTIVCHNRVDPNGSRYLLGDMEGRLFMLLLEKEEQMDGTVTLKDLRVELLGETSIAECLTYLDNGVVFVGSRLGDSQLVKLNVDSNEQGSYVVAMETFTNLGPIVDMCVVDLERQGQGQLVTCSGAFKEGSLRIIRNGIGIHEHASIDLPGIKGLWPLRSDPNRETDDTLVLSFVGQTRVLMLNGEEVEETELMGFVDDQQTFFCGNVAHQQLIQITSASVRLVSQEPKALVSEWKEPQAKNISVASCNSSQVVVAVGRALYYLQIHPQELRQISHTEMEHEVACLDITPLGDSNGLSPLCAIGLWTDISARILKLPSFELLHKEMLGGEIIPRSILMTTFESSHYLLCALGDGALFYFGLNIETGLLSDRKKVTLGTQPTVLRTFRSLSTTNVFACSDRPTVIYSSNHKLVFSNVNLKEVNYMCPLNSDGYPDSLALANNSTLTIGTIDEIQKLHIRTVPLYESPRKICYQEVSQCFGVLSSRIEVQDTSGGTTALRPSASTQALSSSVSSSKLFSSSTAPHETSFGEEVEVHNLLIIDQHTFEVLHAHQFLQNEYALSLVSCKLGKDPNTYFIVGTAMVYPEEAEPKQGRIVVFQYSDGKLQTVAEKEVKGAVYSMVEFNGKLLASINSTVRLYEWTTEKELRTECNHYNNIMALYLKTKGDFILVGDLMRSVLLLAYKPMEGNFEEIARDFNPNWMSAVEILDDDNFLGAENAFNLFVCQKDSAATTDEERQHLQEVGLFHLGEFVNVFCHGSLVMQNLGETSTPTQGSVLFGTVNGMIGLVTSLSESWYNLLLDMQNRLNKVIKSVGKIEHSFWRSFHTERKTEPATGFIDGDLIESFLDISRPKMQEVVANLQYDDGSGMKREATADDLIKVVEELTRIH

| SMILES | IC50 (cellular cereblon (CRBN)) [nM] | DC50 (NSP3 UBL2_PLpro-HA-HiBiT) [nM] | Emax (NSP3 UBL2_PLpro-HA-HiBiT) [%] | further results |
| --- | --- | --- | --- | --- |
| CNC(=O)N1CCc2c(c(N3CCCc4cc(-c5cnn(C)c5)c(C(F)F)cc43)nn2C2CCN(C(=O)CCCCCCCCN3CCC(c4ccc5c6c(cccc46)C(=O)N5C4CCC(=O)NC4=O)CC3)CC2)C1 (stereo not drawn) | – | – | – | Kd (CRBN-DDB1; [1]): < 10 nM; DC50 (CBP/P300): < 10 nM; Emax (CBP/P300): < 30% |
| CNC(=O)N1CCc2c(c(N3CCCc4cc(-c5cnn(C)c5)c(C(F)F)cc43)nn2C2CCN(C(=O)CCCCCCCCN3CCC(Nc4ccc5c6c(cccc46)C(=O)N5C4CCC(=O)NC4=O)CC3)CC2)C1 (stereo not drawn) | – | – | – | Kd (CRBN-DDB1; [1]): < 10 nM; DC50 (CBP/P300): < 10 nM; Emax (CBP/P300): < 30% |
| COC(=O)c1ccc2c3c(cccc13)C(=O)N2C1CCC(=O)NC1=O (stereo not drawn) | < 100 | – | – | Kd (CRBN-DDB1; [2]): 100 to 1000 nM |
| Nc1ccc2c3c(cccc13)C(=O)N2C1CCC(=O)NC1=O (stereo not drawn) | < 100 | – | – | Kd (CRBN-DDB1; [2]): 100 to 1000 nM |
| O=C1CCC(N2C(=O)c3cccc4c(C5CCNCC5)ccc2c34)C(=O)N1 (stereo not drawn) | < 100 | – | – | – |
| N#Cc1ccc2c3c(cccc13)C(=O)N2C1CCC(=O)NC1=O (stereo not drawn) | < 100 | – | – | – |
| O=C1CCC(N2C(=O)c3cccc4c(C5CCN(CC(=O)N6CC(c7nc8ccc(-c9n[nH]c%10cc%11c(cc9%10)CN(Cc9ccccc9)C(=O)N%11)cc8o7)C6)CC5)ccc2c34)C(=O)N1 (stereo not drawn) | – | – | – | DC50 (ERK1/2): 100 to 1000 nM; Kd (CRBN-DDB1; class symbols): 1000 to 10000 nM |
| O=C1CCC(N2C(=O)C3CCCc4c(C5CCN(CCCC(=O)N6CC(c7nc8ccc(-c9n[nH]c%10cc%11c(cc9%10)CN(Cc9ccccc9)C(=O)N%11)cc8o7)C6)CC5)ccc2c43)C(=O)N1 (stereo not drawn) | – | – | – | DC50 (ERK1/2): 100 to 1000 nM; Kd (CRBN-DDB1; class symbols): 1000 to 10000 nM |
| CC(c1ccc(C#CC2CCN(C(=O)CN3CCC(c4ccc5c6c(cccc46)C(=O)N5C4CCC(=O)NC4=O)CC3)CC2)c2ccccc12)N1CCC(C(=O)NCc2cccc(F)c2)CC1 (stereo not drawn) [Compound 102, 1-[1-[4-[2-[1-[2-[4-[1-(2,6-dioxo-3-piperidyl)-2-oxo-benzo[cd]indol-6-yl]-1-piperidyl]acetyl]-4-piperidyl]ethynyl]-1-naphthyl]ethyl]-N-[(3-fluorophenyl)methyl]piperidine-4-carboxamide] | – | > 10000 | 61 to 95 | – |
| CC(c1ccc(C#CC2CCN(C(=O)CN3CCC(c4ccc5c6c(cccc46)N(C4CCC(=O)NC4=O)C5=O)CC3)CC2)c2ccccc12)N1CCC(C(=O)NCc2cccc(F)c2)CC1 (stereo not drawn) [Compound 103, 1-[1-[4-[2-[1-[2-[4-[1-(2,6-dioxo-3-piperidyl)-2-oxo-benzo[cd]indol-5-yl]-1-piperidyl]acetyl]-4-piperidyl]ethynyl]-1-naphthyl]ethyl]-N-[(3-fluorophenyl)methyl]piperidine-4-carboxamide] | – | > 10000 | 61 to 95 | – |
| CC(c1cccc2c(C#CC3CCN(C(=O)CN4CCC(c5ccc6c7c(cccc57)C(=O)N6C5CCC(=O)NC5=O)CC4)CC3)cccc12)N1CCC(C(=O)NCc2cccc(F)c2)CC1 (stereo not drawn) [Compound 104, 1-[1-[5-[2-[1-[2-[4-[1-(2,6-dioxo-3-piperidyl)-2-oxo-benzo[cd]indol-6-yl]-1-piperidyl]acetyl]-4-piperidyl]ethynyl]-1-naphthyl]ethyl]-N-[(3-fluorophenyl)methyl]piperidine-4-carboxamide] | – | > 10000 | 61 to 95 | – |
| CC(c1cccc2c(C#CC3CCN(C(=O)CN4CCC(c5ccc6c7c(cccc57)N(C5CCC(=O)NC5=O)C6=O)CC4)CC3)cccc12)N1CCC(C(=O)NCc2cccc(F)c2)CC1 (stereo not drawn) [Compound 105, 1-[1-[5-[2-[1-[2-[4-[1-(2,6-dioxo-3-piperidyl)-2-oxo-benzo[cd]indol-5-yl]-1-piperidyl]acetyl]-4-piperidyl]ethynyl]-1-naphthyl]ethyl]-N-[(3-fluorophenyl)methyl]piperidine-4-carboxamide] | – | > 10000 | 61 to 95 | – |

— patent US20230372496A1, “TRICYCLIC HETEROBIFUNCTIONAL COMPOUNDS FOR DEGRADATION OF TARGETED PROTEINS” (C4 Therapeutics, Inc., priority 2020, published 2023)
